We go through one molecule from US20230233589A1, “METHODS FOR TREATING CANCER USING A MODIFIED MONOSACCHARIDE COMPOUND” (THERAONCO, priority 2020, published 2023).

The series in a line: Clinical follow-up of treated mice (body weight, water consumption). It counts as in vivo, NMRI nude mice. The protocol: 45 female NMRI nude mice, 6 weeks old.
Clinical follow-up: animals weight and tumor volume: 2-3 times a week.
Hela and Cal33 Cell Lines • cumulative dose of 20 mg (5 mg/mouse/inj repeated 1 day/2 for 8 days (4 times)) Panc-1 cell line • cumulative dose of […] (9 mg/mouse/injection repeated 1 day/2 for 21 days (11 times))
Hela Cell Lines • cumulative dose of 200 mg per mouse: 25 mg/day (8 mL/day @ 3.13 mg/mL) over 8 days
Cal33 Cell Lines • cumulative dose of 400 mg per mouse: 50 mg/day (8 mL/day @ 6.25 mg/mL) over 8 days
Panc-1 Cell Line • cumulative dose of 200 mg per mouse: 9.5 mg/day (8 mL/day @ 1.19 mg/mL) over 21 days

In the case of `[N-]=[N+]=NC[C@H]1OC(O)[C@@H](O)[C@@H]1O` (stereo partly drawn) [Ara-N3, 5-azido-5-deoxy-D-arabinofuranose], the “water consumption of the mice” value (Ara-N3 in drinking water up to 6.25 mg/mL) is “did not alter the water consumption”. In addition, the body weight loss result is on record as “did not induce any body weight loss” (treatment by intravenous injections) and “did not induce any body weight loss” (treatment in drinking water).
